From publication PMC3740683, “ML212: A small-molecule probe for investigating fluconazole resistance mechanisms in Candida albicans” (Beilstein Journal of Organic Chemistry, 2013) come the findings set out here.

The subject of data set [1] is C. albicans CaCi-8. Briefly: Secondary assay 1: CaCi-8 with 8 µg/mL fluconazole (Alamar Blue growth). The data set is classed as cell-based, Candida albicans. Particulars: Candida albicans, CACI8, 48 h, read-out: CaCi-8 IC50. On the procedure:
All of the compounds prepared above were evaluated for their ability to chemosensitize the C. albicans test strains CaCi-2 and CaCi-8 towards fluconazole. […] The DMSO/fluconazole combination served as an internal control. […]
(1/OD measured) × (desired final volume of inoculum) × 0.3 = volume of fungal culture (µL) to add to desired volume of growth medium. When added to media in wells, this yields a calculated starting OD of the fungal inoculum of 0.00015. […]
3) Use a Thermo Combi nL to dispense 20 µL/well of assay media into all wells. […]
EnVision (Perkin Elmer) plate reader setup: Ex 544 nm, Em 590 nm, bandwidth 12 nm, top read.
Secondary assay 1: CaCi-8 with 8 µg/mL fluconazole […]
35808016); geldanamycin (AG Scientific Catalog no. […]
PBS w/o calcium and magnesium (Cellgro Catalog no. 21-040-CV)
Synthetic defined growth medium
RPMI 1640 medium, (powder without sodium bicarbonate; Invitrogen Catalog no. […]
no. 028K0760); glucose 40% (w/v) in water (Sigma Catalog no. G-5400); MOPS buffer […]
1) Prepare 1× RPMI medium by dissolving 10.4 g powdered medium in 800 mL […]
2) Add 34.52 g MOPS. While stirring, adjust pH to 7.0 with 10 N NaOH.
3) Add 10 mL uridine solution, 50 mL glucose solution, adjust final volume to 1000 […]
Test strain: C. albicans CaCi-8
1) Inoculate 500 µL of strain from cryopreserved stock into a 250 mL shaker flask containing 30 mL growth medium. Shake at 30 °C overnight (16 hours).
(§1) 2) Read OD 600 of 1 mL of fungal culture in a cuvette using a standard optical density reader (Eppendorf BioPhotometer Plus), with growth medium as a […]
3) Dilute to a desired volume of fungal inoculum according to following formula: […]
1) Add fluconazole stock solution to fungal inoculum to achieve 8 µg/mL.
2) Add Pen/Strep to media to 1% concentration.
4) Dispense geldanamycin in positive control wells using Thermo Combi nL for a final concentration of 3 µM.
(§2) 5) Then, pin 100 nL of test compound from compound plates into assay plates using a CyBi-Well pin tool.
(§3) 6) Dispense 20 µL/well of culture into the assay media in all wells.
(§4) 7) Incubate the plates in a humidified (90% humidity) Liconic incubator at 37 °C without agitation for 48 hours.
(§5) 8) Dilute Alamar Blue 1:40 in Ca/Mg-free PBS.
(§6) 9) To all plates, add 5 µL/well of the diluted Alamar Blue to plates to a final dilution […]
10) Incubate the plates for 2 hours. […]

In data set [2] the test system is calcineurin-dependent signaling pathway. Description: Yeast-reporter assay, calcineurin-dependent signaling pathway. The class given is cell-based. Particulars: Saccharomyces cerevisiae.
The test system of data set [3] is Hsp90-dependent signaling pathway. Description: Yeast-reporter assay, Hsp90-dependent signaling pathway. The class given is cell-based. Particulars: Saccharomyces cerevisiae.
The nature of data set [4]: Plasma stability, murine plasma. The class given is in vitro ADME. Particulars: 5 h incubation.
Data set [5] can be described thus: Plasma stability, human plasma. The data set is classed as in vitro ADME. Particulars: 5 h incubation.
Data set [6] deals with C. albicans CaCi-2. Briefly: Secondary assay 2: CaCi-2 in the absence of fluconazole. Particulars: Candida albicans, CACI2; no fluconazole, 48 h incubation; read-out: IC50 against C. albicans in the absence of fluconazole. The data set is classed as cell-based. On the procedure:
as §2, §3, §4, §5, §6
10) Incubate the plates for 2 hours.
11) Read the relative fluorescence intensity (RFU) of wells on a standard plate reader as a measure of relative fungal growth. EnVision (Perkin Elmer) plate reader setup: Ex 544 nm, Em 590 nm, bandwidth 12 nm, top read.
Secondary assay 2: CaCi-2 in the absence of fluconazole
Clear, flat-bottom, black 384-well plates (Corning Catalog no. 3712BC; Lot no.
35808016); geldanamycin (AG Scientific Catalog no. G-1047) 15 mM stock solution in […]
as §1
measured) × (desired final volume of inoculum) × 0.3 = volume of fungal culture […]
this yields a calculated starting OD of the fungal inoculum of 0.00015. […]
11) Read relative fluorescence intensity (RFU) of wells on a standard plate reader as […]
measure of relative fungal growth. EnVision (Perkin Elmer) plate reader settings: […]

Structures are written as SMILES.

Take `COC(=O)Cn1nc(-c2cccc(OC)c2)c2ccccc21` [Compound 36]: the IC50 was 1.5 ± 0.6 µM in data set [1], over 26 µM in data set [2], over 26 µM in data set [3] and over 26 µM in data set [6]. The “remaining after incubation in plasma” value in data set [4] and in data set [5] was under 10% throughout.
